A word on the residual activity: it is the signal under treatment as a percentage of the control signal.

Experimental findings from the kinase profiling compilation of Christmann-Franck et al. (2016) are described below.

SMILES strings stand for the structures.

STK16 (human), sequence (O75716 whole entry, looked up): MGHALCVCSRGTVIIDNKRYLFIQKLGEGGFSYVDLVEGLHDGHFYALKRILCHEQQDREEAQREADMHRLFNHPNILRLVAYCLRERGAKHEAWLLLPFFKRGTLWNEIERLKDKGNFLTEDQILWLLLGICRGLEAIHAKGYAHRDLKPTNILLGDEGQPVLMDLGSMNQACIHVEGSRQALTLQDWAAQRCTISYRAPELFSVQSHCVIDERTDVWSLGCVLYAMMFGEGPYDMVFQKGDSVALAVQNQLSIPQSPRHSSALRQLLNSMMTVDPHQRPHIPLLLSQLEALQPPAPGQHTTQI
MYLK (human), sequence (Q15746 whole entry, looked up): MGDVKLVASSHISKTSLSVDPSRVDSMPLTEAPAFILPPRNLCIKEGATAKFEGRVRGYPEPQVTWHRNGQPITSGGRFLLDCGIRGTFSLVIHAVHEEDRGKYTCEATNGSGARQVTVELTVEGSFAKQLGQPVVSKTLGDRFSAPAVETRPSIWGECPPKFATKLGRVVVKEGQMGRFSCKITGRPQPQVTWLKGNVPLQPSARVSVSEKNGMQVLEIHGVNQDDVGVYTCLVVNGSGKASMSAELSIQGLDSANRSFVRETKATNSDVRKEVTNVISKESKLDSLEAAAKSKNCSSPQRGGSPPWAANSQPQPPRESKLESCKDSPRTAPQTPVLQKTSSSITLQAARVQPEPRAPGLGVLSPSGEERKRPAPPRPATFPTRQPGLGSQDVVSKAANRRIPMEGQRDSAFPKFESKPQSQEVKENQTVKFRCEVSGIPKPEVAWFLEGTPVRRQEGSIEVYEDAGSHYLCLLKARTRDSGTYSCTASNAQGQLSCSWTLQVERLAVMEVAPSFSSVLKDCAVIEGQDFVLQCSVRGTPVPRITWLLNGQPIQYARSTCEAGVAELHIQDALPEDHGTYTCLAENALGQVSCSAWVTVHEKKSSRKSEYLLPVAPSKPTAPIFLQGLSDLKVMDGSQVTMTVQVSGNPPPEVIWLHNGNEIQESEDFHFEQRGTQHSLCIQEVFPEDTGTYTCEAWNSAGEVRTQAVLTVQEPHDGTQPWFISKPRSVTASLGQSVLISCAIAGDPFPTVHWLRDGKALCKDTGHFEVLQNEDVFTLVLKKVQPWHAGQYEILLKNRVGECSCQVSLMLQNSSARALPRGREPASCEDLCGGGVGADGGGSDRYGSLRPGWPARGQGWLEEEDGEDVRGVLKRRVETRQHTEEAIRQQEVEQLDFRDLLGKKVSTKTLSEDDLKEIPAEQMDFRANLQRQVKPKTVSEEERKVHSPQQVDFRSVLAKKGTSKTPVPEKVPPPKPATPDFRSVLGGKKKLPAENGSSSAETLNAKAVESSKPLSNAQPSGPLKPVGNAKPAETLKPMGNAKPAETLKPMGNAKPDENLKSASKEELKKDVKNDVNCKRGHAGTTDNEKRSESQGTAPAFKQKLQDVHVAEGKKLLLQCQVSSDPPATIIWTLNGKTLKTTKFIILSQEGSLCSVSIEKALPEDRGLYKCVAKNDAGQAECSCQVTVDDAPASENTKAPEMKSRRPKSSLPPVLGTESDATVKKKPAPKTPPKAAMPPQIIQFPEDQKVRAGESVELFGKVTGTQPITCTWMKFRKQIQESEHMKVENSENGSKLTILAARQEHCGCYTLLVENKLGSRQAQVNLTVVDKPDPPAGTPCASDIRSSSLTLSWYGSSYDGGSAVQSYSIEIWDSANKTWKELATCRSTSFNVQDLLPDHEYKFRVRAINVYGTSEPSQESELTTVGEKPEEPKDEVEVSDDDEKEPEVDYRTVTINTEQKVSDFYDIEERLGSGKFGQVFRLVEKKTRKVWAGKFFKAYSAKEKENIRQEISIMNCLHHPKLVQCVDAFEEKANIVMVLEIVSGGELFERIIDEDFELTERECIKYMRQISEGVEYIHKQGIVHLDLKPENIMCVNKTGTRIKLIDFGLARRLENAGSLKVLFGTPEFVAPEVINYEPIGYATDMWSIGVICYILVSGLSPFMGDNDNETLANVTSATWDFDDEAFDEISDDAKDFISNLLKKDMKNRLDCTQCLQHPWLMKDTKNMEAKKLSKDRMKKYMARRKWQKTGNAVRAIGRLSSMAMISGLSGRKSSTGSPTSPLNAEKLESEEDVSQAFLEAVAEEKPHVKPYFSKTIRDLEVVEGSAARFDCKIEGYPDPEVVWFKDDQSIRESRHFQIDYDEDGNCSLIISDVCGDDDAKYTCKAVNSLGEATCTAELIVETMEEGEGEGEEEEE

One test addresses STK16 (human) (UniProt O75716). Put plainly: radiometric filter-binding kinase assay. The settings on record: compound 1.0 µM.
As for `CCCCCc1ccc(/C=C/[C@H](O)[C@@H](CO)NC)cc1`, the residual activity stood at 98%.

On to `c1ccc2c(-c3cnn4cc(-c5ccc(N6CCNCC6)cc5)cnc34)ccnc2c1`, for which the residual activity was 98%.

Turning to `NC(=O)c1c(NC(=O)C2CC2)sc2c1CCCC2`, the residual activity was 107%.

Consider `COc1cc(O)c2c(c1)/C=C/C[C@H](O)[C@H](O)C(=O)/C=C\C[C@H](C)OC2=O`, for which the residual activity amounted to 101%.

The same test, now with this note: compound 10.0 µM.
With `CCCCCc1ccc(/C=C/[C@H](O)[C@@H](CO)NC)cc1`, the residual activity was found to be 100%.

For the compound `CC(C)C[C@H](NC(=O)CNC(=O)c1cc(Cl)ccc1Cl)B1OC(=O)CC(CC(=O)O)(C(=O)O)O1` (stereo not given in full), the residual activity worked out at 102%.

For the compound `O=S(=O)(c1ccc(F)c2nonc12)N1CCN(c2ncc(C(F)(F)F)cc2Cl)CC1`, the residual activity worked out at 94%.

In the case of `c1ccc2c(-c3cnn4cc(-c5ccc(N6CCNCC6)cc5)cnc34)ccnc2c1`, the residual activity turned out to be 84%.

With `NC(=O)c1c(NC(=O)C2CC2)sc2c1CCCC2`, the residual activity worked out at 92%.

Another test has as its target MYLK (human) (UniProt Q15746). Put plainly: radiometric filter-binding kinase assay. As to conditions: compound 0.001 µM.
On to `C/C(=C1/C(=O)Nc2ccc(NC(N)=O)cc21)c1ccc[nH]1`, for which the residual activity was 90%.

The same test, now with this note: compound 0.01 µM.
Consider `C/C(=C1/C(=O)Nc2ccc(NC(N)=O)cc21)c1ccc[nH]1`, for which the residual activity was determined as 89%.

The same test, now with this note: compound 0.1 µM.
For the compound `O=C(Nc1ccccc1-c1cn2c(CN3CCNCC3)csc2n1)c1cnc2ccccc2n1`, the residual activity came to 82%.

For `Cc1ccc(Sc2cnc(Nc3cccc(Br)n3)s2)cc1C(=O)N1CCN(C(=O)CN)CC1`, the residual activity amounted to 51%.

Take `O=C(O)c1ccc(-c2c[nH]c3ncc(-c4ccccc4)cc23)cc1C1CCCC1`: the residual activity came out at 87%.

For the compound `CCCCCc1ccc(/C=C/[C@H](O)[C@@H](CO)NC)cc1`, the residual activity was determined as 90%.

Take `Cn1c(=O)c2c(ncn2C)n(C)c1=O`: the residual activity was 90%.

Take `Cc1cccc(-c2nn(C(=S)Nc3ccccc3)cc2-c2ccnc3ccccc23)n1`: the residual activity stood at 104%.

In the case of `C/C(=C1/C(=O)Nc2ccc(NC(N)=O)cc21)c1ccc[nH]1`, the residual activity came to 65%.

On to `NC1(c2ccc(-c3nc4ccn5c(=O)[nH]nc5c4cc3-c3ccccc3)cc2)CCC1`, for which the residual activity came out at 87%.

Turning to `NC(=O)Nc1ccc2c(c1)/C(=C/c1cc(-c3cccnc3)c[nH]1)C(=O)N2`, the residual activity was 54%.

Regarding `c1ccc2c(-c3cnn4cc(-c5ccc(N6CCNCC6)cc5)cnc34)ccnc2c1`, the residual activity stood at 104%.

As for `NC(=O)c1cc2c(-c3cccc(-c4ccccc4)c3)cnc(N)c2s1`, the residual activity was 98%.

Regarding `CCc1cncnc1N1CCN(Cc2nc3cc(C(F)(F)F)ccc3[nH]2)CC1`, the residual activity was 95%.

Regarding `COc1cc(O)c2c(c1)/C=C/C[C@H](O)[C@H](O)C(=O)/C=C\C[C@H](C)OC2=O`, the residual activity was 108%.

Staying with this test, now noted: compound 1.0 µM.
Consider `O=C(Nc1ccccc1-c1cn2c(CN3CCNCC3)csc2n1)c1cnc2ccccc2n1`, for which the residual activity was 27%.

On to `Cc1ccc(Sc2cnc(Nc3cccc(Br)n3)s2)cc1C(=O)N1CCN(C(=O)CN)CC1`, for which the residual activity was determined as 43%.

On to `O=C(O)c1ccc(-c2c[nH]c3ncc(-c4ccccc4)cc23)cc1C1CCCC1`, for which the residual activity is 102%.

Regarding `CCCCCc1ccc(/C=C/[C@H](O)[C@@H](CO)NC)cc1`, the residual activity was determined as 95%.

Turning to `C[C@H]1CCCC(=O)CCC/C=C/c2cc(O)cc(O)c2C(=O)O1`, the residual activity was 104%.

Regarding `Cn1c(=O)c2c(ncn2C)n(C)c1=O`, the residual activity amounted to 91%.

For `COc1cc2ncn(-c3cc(OCc4ccccc4S(C)(=O)=O)c(C#N)s3)c2cc1OC`, the residual activity was found to be 89%.

Consider `Cc1cccc(-c2nn(C(=S)Nc3ccccc3)cc2-c2ccnc3ccccc23)n1`, for which the residual activity stood at 89%.

With `Cc1cc(SCc2sc(-c3ccc(C(F)(F)F)cc3)nc2C)ccc1OCC(=O)O`, the residual activity turned out to be 92%.

On to `NC1(c2ccc(-c3nc4ccn5c(=O)[nH]nc5c4cc3-c3ccccc3)cc2)CCC1`, for which the residual activity is 85%.

For `NC(=O)Nc1ccc2c(c1)/C(=C/c1cc(-c3cccnc3)c[nH]1)C(=O)N2`, the residual activity worked out at 11%.

Regarding `c1ccc2c(-c3cnn4cc(-c5ccc(N6CCNCC6)cc5)cnc34)ccnc2c1`, the residual activity was 107%.

Regarding `O=C1Nc2nc(-c3c(O)cccc3OCC3CC3)cc(C3CCCNC3)c2CO1` (stereo not given), the residual activity stood at 76%.

Consider `N#Cc1c(C2CCNCC2)cc(-c2c(O)cccc2OCC2CC2)nc1N`, for which the residual activity was determined as 70%.

In the case of `FC(F)(F)c1ccc(-c2ccc(Oc3cncc4sc(-c5nn[nH]n5)cc34)cc2)cc1`, the residual activity turned out to be 94%.

Regarding `NC(=O)c1c(NC(=O)C2CC2)sc2c1CCCC2`, the residual activity came to 96%.

Regarding `Oc1ccc2ccccc2c1SSc1c(O)ccc2ccccc12`, the residual activity worked out at 74%.

In the case of `O=c1c(O)c(-c2ccc(O)c(O)c2)oc2cc(O)c(O)c(O)c12`, the residual activity is 87%.

With `CN1C(=O)[C@@H](Cc2c[nH]c3ccccc23)NC1=S`, the residual activity turned out to be 83%.

Regarding `NC(=O)c1cc2c(-c3cccc(-c4ccccc4)c3)cnc(N)c2s1`, the residual activity turned out to be 53%.

On to `O=C(O)c1cc(N=Nc2ccc(S(=O)(=O)Nc3ccccn3)cc2)ccc1O`, for which the residual activity was found to be 112%.

Turning to `CCc1cncnc1N1CCN(Cc2nc3cc(C(F)(F)F)ccc3[nH]2)CC1`, the residual activity came to 79%.

Turning to `NC(=O)c1ccc(-c2ccc(Oc3cncc4sc(-c5nn[nH]n5)cc34)cc2)cc1`, the residual activity was determined as 86%.

With `COc1cc(O)c2c(c1)/C=C/C[C@H](O)[C@H](O)C(=O)/C=C\C[C@H](C)OC2=O`, the residual activity is 80%.

Consider `O=C1NC(=S)N[C@@H]1Cc1c[nH]c2ccccc12`, for which the residual activity was 70%.

The test is the same for the next values; noted with them: compound 5.0 µM.
Consider `Oc1ccc2ccccc2c1SSc1c(O)ccc2ccccc12`, for which the residual activity turned out to be 51%.

The test is the same for the next values; noted with them: compound 10.0 µM.
On to `O=C(Nc1ccccc1-c1cn2c(CN3CCNCC3)csc2n1)c1cnc2ccccc2n1`, for which the residual activity came to 10%.

Consider `Cc1ccc(Sc2cnc(Nc3cccc(Br)n3)s2)cc1C(=O)N1CCN(C(=O)CN)CC1`, for which the residual activity is 5%.

Turning to `O=C(O)c1ccc(-c2c[nH]c3ncc(-c4ccccc4)cc23)cc1C1CCCC1`, the residual activity was found to be 87%.

As for `CCCCCc1ccc(/C=C/[C@H](O)[C@@H](CO)NC)cc1`, the residual activity is 91%.

Turning to `C[C@H]1CCCC(=O)CCC/C=C/c2cc(O)cc(O)c2C(=O)O1`, the residual activity came to 59%.

On to `CC(C)C[C@H](NC(=O)CNC(=O)c1cc(Cl)ccc1Cl)B1OC(=O)CC(CC(=O)O)(C(=O)O)O1` (stereo not given in full), for which the residual activity is 103%.

For the compound `COc1cc2ncn(-c3cc(OCc4ccccc4S(C)(=O)=O)c(C#N)s3)c2cc1OC`, the residual activity turned out to be 61%.

Turning to `O=S(=O)(c1ccc(F)c2nonc12)N1CCN(c2ncc(C(F)(F)F)cc2Cl)CC1`, the residual activity is 112%.

On to `Cc1cc(SCc2sc(-c3ccc(C(F)(F)F)cc3)nc2C)ccc1OCC(=O)O`, for which the residual activity worked out at 74%.

In the case of `NC1(c2ccc(-c3nc4ccn5c(=O)[nH]nc5c4cc3-c3ccccc3)cc2)CCC1`, the residual activity was 72%.

As to `NC(=O)Nc1ccc2c(c1)/C(=C/c1cc(-c3cccnc3)c[nH]1)C(=O)N2`, the residual activity stood at 1%.

`Cc1ccc2c(c1)C(=O)[C@@]1(O)CCN(c3ccccc3)C1=N2`: the residual activity is 74%.

For the compound `c1ccc2c(-c3cnn4cc(-c5ccc(N6CCNCC6)cc5)cnc34)ccnc2c1`, the residual activity was determined as 60%.

`O=C1Nc2nc(-c3c(O)cccc3OCC3CC3)cc(C3CCCNC3)c2CO1` (stereo not given): the residual activity worked out at 37%.

Turning to `N#Cc1c(C2CCNCC2)cc(-c2c(O)cccc2OCC2CC2)nc1N`, the residual activity was 25%.

`FC(F)(F)c1ccc(-c2ccc(Oc3cncc4sc(-c5nn[nH]n5)cc34)cc2)cc1`: the residual activity stood at 42%.

With `NC(=O)c1c(NC(=O)C2CC2)sc2c1CCCC2`, the residual activity was 49%.

`Oc1ccc2ccccc2c1SSc1c(O)ccc2ccccc12`: the residual activity came out at 87%.

Consider `O=c1c(O)c(-c2ccc(O)c(O)c2)oc2cc(O)c(O)c(O)c12`, for which the residual activity was found to be 23%.

In the case of `CN1C(=O)[C@@H](Cc2c[nH]c3ccccc23)NC1=S`, the residual activity was 81%.

Turning to `NC(=O)c1cc2c(-c3cccc(-c4ccccc4)c3)cnc(N)c2s1`, the residual activity is 17%.

Consider `O=C(O)c1cc(N=Nc2ccc(S(=O)(=O)Nc3ccccn3)cc2)ccc1O`, for which the residual activity stood at 99%.

Take `CCc1cncnc1N1CCN(Cc2nc3cc(C(F)(F)F)ccc3[nH]2)CC1`: the residual activity was 87%.

In the case of `NC(=O)c1ccc(-c2ccc(Oc3cncc4sc(-c5nn[nH]n5)cc34)cc2)cc1`, the residual activity came out at 35%.

In the case of `O=C1NC(=S)N[C@@H]1Cc1c[nH]c2ccccc12`, the residual activity was 94%.
